As a reminder, the IC50 is the concentration that inhibits the measured activity by half.

Like-named read-outs stand apart in the source and are kept apart here.

For experiment [1], the target named is T1, full length human IRAK4 protein (Homo sapiens, UniProt Q9NWZ3).
T1 construct: Purified full length human IRAK4 protein; purchased Signal Chem I12-10G-125
T1 sequence (Q9NWZ3 1-460): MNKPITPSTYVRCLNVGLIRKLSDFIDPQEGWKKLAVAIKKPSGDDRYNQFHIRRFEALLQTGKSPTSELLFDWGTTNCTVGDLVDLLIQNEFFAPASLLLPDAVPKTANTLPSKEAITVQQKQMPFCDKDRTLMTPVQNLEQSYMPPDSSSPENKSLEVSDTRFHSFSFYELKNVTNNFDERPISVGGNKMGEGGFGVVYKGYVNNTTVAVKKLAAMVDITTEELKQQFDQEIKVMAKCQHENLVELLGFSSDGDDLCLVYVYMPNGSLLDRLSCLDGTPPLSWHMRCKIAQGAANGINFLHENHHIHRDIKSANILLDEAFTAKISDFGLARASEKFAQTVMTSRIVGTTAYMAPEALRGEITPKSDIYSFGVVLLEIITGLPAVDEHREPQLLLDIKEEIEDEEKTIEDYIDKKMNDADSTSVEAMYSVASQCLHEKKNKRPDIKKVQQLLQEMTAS
The experiment can be described thus: IRAK4 Biochemical Assay (Promega ADP-Glo IRAK4 Kinase Enzyme System). Conditions: 3 nM enzyme, 250 μM ATP; for IC50: 2 μM MBP, 60 min at room temperature; for IRAK4 Biochemical Assay Max Inhibition (%): maximum inhibition. As for the experimental part:
For the routine compound screening, an IRAK4 kinase assay was performed as follows using Promega ADP-Glo IRAK4 Kinase Enzyme System (Promega, Cat #2198-AD). Purified full length human IRAK4 protein (Signal Chem; Cat #I12-10G-125) was diluted to a concentration 6 nM in assay buffer (25 mM MOPS, pH 7.2, 12.5 mM β-glycerol-phosphate, 25 mM MgCl2, 5 mM EGTA, 2 mM EDTA, 0.0025% Brij-35, add 0.25 mM DTT to Kinase Assay Buffer prior to use) containing IRAK4 inhibitor at 2× the final concentration in 0.4% DMSO. The reaction was performed in PerkinElmer Proxiplate-384 plus white plate (Fisher Scientific, Cat #50-905-2761) and started by the addition of an equal volume of the assay buffer containing 4 μM native swine myelin basic protein (MBP) and 500 μM ATP to achieve a final concentration of 3 nM enzyme, 2 μM MBP, 250 μM ATP, 1× compound, and 0.2% DMSO. The kinase reaction was allowed to run for 60 min at room temperature (25-27° C.), then 5 μL of ADP-Glo was added to the reaction in each well followed by 40 minutes-incubation at RT. To detect converted […], 10 μL Detection Buffer was added into each well and Incubate at RT in dark for 30 minutes. Finally, luminescence was read using Tecan with 1000 ms of integration time. The luminescent signal positively correlates with ADP amount and kinase activity. Data was analyzed by GraphPad Prism and IC50 was calculated using function log(inhibitor) vs. response—Variable slope (four parameters). Percentage of inhibition was calculated as below:
(§1) % inhibition=(1−(Reading(Sample)−Reading(Negative Control))/(Reading(Positive Control)−Reading(Negative Control)))×100%
The 0% inhibition value comes from the Reading of Positive Control wells having 0 nM compound. The 100% inhibition value comes from the Reading of Negative Control wells having no IRAK4 kinase.
A general note: ADP-Glo first removes unused ATP, then detects ADP through luciferase.

Experiment [2] has as its target T2, IRAK4 (Homo sapiens, UniProt Q9NWZ3).
T2 construct: host or cells: human peripheral blood mononuclear cells (PBMCs)
T2 sequence (Q9NWZ3 1-460): T1 sequence (Q9NWZ3 1-460)
The experiment can be described thus: IRAK4 Human PBMC TNFα Cell Based Assay (AlphaLISA). Conditions: TNFα measured. Here is the method: In this assay, serially diluted compounds were incubated with 1×10^4 human peripheral blood mononuclear cells (PBMCs) from STEMCELL (Cat #70025.1) per well of 384-well plate (Fisher Scientific; 50-905-2761) and cultured with TexMACS medium (Miltenyi, Cat #130-097-196), stimulated by R848 (0.5 μM) or IL-1β (10 ng/ml). Plates were covered with lids and incubated for 4 h (R848, Fisher Scientific, Cat #NC9801605) or 24 h (IL-1β, Fisher Scientific, Cat #ENRIL1BI) at 37° C. in a humidified tissue-culture incubator. After a brief centrifugation at 1000 rpm for 5 minutes, 5 μl of culture medium was used for the measurement of the TNFα amount using TNFα (human) AlphaLISA Detection Kit (PerkinElmer, Cat #AL208C) according to manufacturer's protocol. A biotinylated anti-TNFα antibody binds to the Streptavidin-coated Donor beads while another anti-TNFα antibody is conjugated to AlphaLISA Acceptor beads. In the presence of the TNFα, the beads come into close proximity. The excitation of the Donor beads causes the release of singlet oxygen molecules that triggers a cascade of energy transfer in the Acceptor beads, resulting in a sharp peak of light emission at 615 nm. AlphaLISA assay plates were read using PHERAstar. Percentage of inhibition was calculated as below:
as §1
The 0% inhibition value comes from the Reading of Positive Control wells having 0 nM compound. The 100% inhibition value comes from the Reading of Negative Control wells having no R848 or IL-1β.

The mark [3] stands for this setting: human PBMCs stimulated by IL-1β (10 ng/ml), 24 h, read-out: IRAK4 PBMC AlphaLISA IL-1β (IC50).
[4] abbreviates: human PBMCs stimulated by R848 (0.5 μM), 4 h, read-out: IRAK4 PBMC AlphaLISA R848 (IC50).

On to `CC[C@@H]1[C@H](F)C(=O)N[C@@H]1COc1ncc(C#CC(C)(C)NC(=O)OC(C)(C)C)c2cc(C(N)=O)c(OC)cc12` [Example 1, tert-butyl (4-(6-carbamoyl-1-(((2S,3S,4S)-3-ethyl-4-fluoro-5-oxopyrrolidin-2-yl)methoxy)-7-methoxyisoquinolin-4-yl)-2-methylbut-3-yn-2-yl)carbamate], for which the IC50 was 8.4 nM in experiment [1], 18.1 nM in experiment [2] (setting [3]) and 16 nM in experiment [2] (setting [4]). Moreover, in experiment [1], the “IRAK4 Biochemical Assay Max Inhibition (%)” value is recorded as 100.0%.

Consider `CC[C@@H]1[C@H](F)C(=O)N[C@@H]1COc1ncc(C#CC(C)(C)N)c2cc(C(N)=O)c(OC)cc12` [Example 2, 4-(3-amino-3-methylbut-1-yn-1-yl)-1-(((2S,3S,4S)-3-ethyl-4-fluoro-5-oxopyrrolidin-2-yl)methoxy)-7-methoxyisoquinoline-6-carboxamide], for which the IC50 in experiment [1] turned out to be 63 nM; in experiment [2] (setting [3]) it was 25 nM; in experiment [2] (setting [4]), 16 nM. Further, in experiment [1], the “IRAK4 Biochemical Assay Max Inhibition (%)” value was determined as 100.0%.

Turning to `CC[C@@H]1[C@H](F)C(=O)N[C@@H]1COc1ncc(C#CC(C)(C)O)c2cc(C(N)=O)c(OC)cc12` [Example 3, 1-(((2S,3S,4S)-3-ethyl-4-fluoro-5-oxopyrrolidin-2-yl)methoxy)-4-(3-hydroxyl-3-methylbut-1-yn-1-yl)-7-methoxyisoquinoline-6-carboxamide], the 50% inhibitory concentration (IC50) in experiment [1] came out at 17 nM; in experiment [2] (setting [3]), 4.7 nM; in experiment [2] (setting [4]), 2.7 nM. Besides, in experiment [1], the “IRAK4 Biochemical Assay Max Inhibition (%)” value worked out at 100.0%.

In the case of `CC[C@@H]1[C@H](F)C(=O)N[C@@H]1COc1ncc(C#CC(=O)O)c2cc(C(N)=O)c(OC)cc12` [Example 4, 3-(6-carbamoyl-1-(((2S,3S,4S)-3-ethyl-4-fluoro-5-oxopyrrolidin-2-yl)methoxy)-7-methoxyisoquinolin-4-yl)propiolic acid], in experiment [1], the IC50 was found to be 5.7 nM and the “IRAK4 Biochemical Assay Max Inhibition (%)” value is listed as 98.0%.

Turning to `COc1cc2c(OC[C@@H]3CCC(=O)N3)ncc(C#Cc3ccc(C)cc3)c2cc1C(N)=O` [Example 7, (S)-7-methoxy-1-((5-oxopyrrolidin-2-yl)methoxy)-4-(p-tolylethynyl)isoquinoline-6-carboxamide], the IC50 stood at 89 nM in experiment [2] (setting [3]) and 150 nM in experiment [2] (setting [4]).

As for `COc1cc2c(OC[C@@H]3CCC(=O)N3)ncc(C#CCN(C)C)c2cc1C(N)=O` [Example 8, (S)-4-(3-(dimethylamino)prop-1-yn-1-yl)-7-methoxy-1-((5-oxopyrrolidin-2-yl)methoxy)isoquinoline-6-carboxamide], the half-maximal inhibitory concentration (IC50) in experiment [1] worked out at 7.5 nM; in experiment [2] (setting [3]), 128 nM; in experiment [2] (setting [4]), 175 nM. In addition, the “IRAK4 Biochemical Assay Max Inhibition (%)” value in experiment [1] turned out to be 97.0%.

As to `COCC#Cc1cnc(OC[C@@H]2CCC(=O)N2)c2cc(OC)c(C(N)=O)cc12` [Example 9, (S)-7-methoxy-4-(3-methoxyprop-1-yn-1-yl)-1-((5-oxopyrrolidin-2-yl)methoxy)isoquinoline-6-carboxamide], the IC50 in experiment [1] was 14 nM; in experiment [2] (setting [3]), 110 nM; in experiment [2] (setting [4]) it was 140 nM. In experiment [1], the “IRAK4 Biochemical Assay Max Inhibition (%)” value amounted to 100.0%.

In the case of `CC[C@@H]1[C@H](F)C(=O)N[C@@H]1COc1ncc(C#Cc2nn[nH]n2)c2cc(C(N)=O)c(OC)cc12` [Example 10, 4-((2H-tetrazol-5-yl)ethynyl)-1-(((2S,3S,4S)-3-ethyl-4-fluoro-5-oxopyrrolidin-2-yl)methoxy)-7-methoxyisoquinoline-6-carboxamide], in experiment [1], 68 nM corresponded to half-maximal inhibition (IC50) and the “IRAK4 Biochemical Assay Max Inhibition (%)” value is 100.0%.

In the case of `CC[C@@H]1[C@H](F)C(=O)N[C@@H]1COc1ncc(C#CC(=O)N(C)C)c2cc(C(N)=O)c(OC)cc12` [Example 11, 4-(3-(dimethylamino)-3-oxoprop-1-yn-1-yl)-1-(((2S,3S,4S)-3-ethyl-4-fluoro-5-oxopyrrolidin-2-yl)methoxy)-7-methoxyisoquinoline-6-carboxamide], the IC50 in experiment [1] turned out to be 10 nM; in experiment [2] (setting [3]), 1 nM; in experiment [2] (setting [4]), 0.7 nM. For the same molecule, the “IRAK4 Biochemical Assay Max Inhibition (%)” value in experiment [1] was 95.0%.

On to `CC[C@@H]1[C@H](F)C(=O)N[C@@H]1COc1ncc(C#Cc2cncnc2)c2cc(C(N)=O)c(OC)cc12` [Example 12, 1-(((2S,3S,4S)-3-ethyl-4-fluoro-5-oxopyrrolidin-2-yl)methoxy)-7-methoxy-4-(pyrimidin-5-ylethynyl)isoquinoline-6-carboxamide], for which the figures for the IC50 in experiment [1], in experiment [2] (setting [3]) and in experiment [2] (setting [4]) were 69 nM, 0.8 nM and 1.4 nM, respectively. The “IRAK4 Biochemical Assay Max Inhibition (%)” value in experiment [1] is 100.0%.

As for `CC[C@@H]1[C@H](F)C(=O)N[C@@H]1COc1ncc(C#Cc2cnccn2)c2cc(C(N)=O)c(OC)cc12` [Example 13, 1-(((2S,3S,4S)-3-ethyl-4-fluoro-5-oxopyrrolidin-2-yl)methoxy)-7-methoxy-4-(pyrazin-2-ylethynyl)isoquinoline-6-carboxamide], the values for the IC50 in experiment [1], in experiment [2] (setting [3]) and in experiment [2] (setting [4]) were 18 nM, 1.3 nM and 1.6 nM, respectively. Further, the “IRAK4 Biochemical Assay Max Inhibition (%)” value in experiment [1] is given as 95.0%.

As for `CC[C@@H]1[C@H](F)C(=O)N[C@@H]1COc1ncc(C#Cc2cccnc2)c2cc(C(N)=O)c(OC)cc12` [Example 14, 1-(((2S,3S,4S)-3-ethyl-4-fluoro-5-oxopyrrolidin-2-yl)methoxy)-7-methoxy-4-(pyridin-3-ylethynyl)isoquinoline-6-carboxamide], the IC50 was 29 nM in experiment [1], 1.3 nM in experiment [2] (setting [3]) and 1.6 nM in experiment [2] (setting [4]). In addition, in experiment [1], the “IRAK4 Biochemical Assay Max Inhibition (%)” value amounted to 100.0%.

Take `CC[C@@H]1[C@H](F)C(=O)N[C@@H]1COc1ccc(C#CCN(C)C)c2cc(C(N)=O)c(OC)cc12` [Example 15, 8-(3-(dimethylamino)prop-1-yn-1-yl)-5-(((2S,3S,4S)-3-ethyl-4-fluoro-5-oxopyrrolidin-2-yl)methoxy)-3-methoxy-2-naphthamide]: the IC50 in experiment [1] came out at 12 nM; in experiment [2] (setting [3]) it was 1.3 nM; in experiment [2] (setting [4]), 1.7 nM. The “IRAK4 Biochemical Assay Max Inhibition (%)” value in experiment [1] is reported as 101.0%.

For the molecule `CC[C@@H]1[C@H](F)C(=O)N[C@@H]1COc1ncc(C#Cc2ncccn2)c2cc(C(N)=O)c(OC)cc12` [Example 16, 1-(((2S,3S,4S)-3-ethyl-4-fluoro-5-oxopyrrolidin-2-yl)methoxy)-7-methoxy-4-(pyrimidin-2-ylethynyl)isoquinoline-6-carboxamide], the IC50 in experiment [1] amounted to 19 nM; in experiment [2] (setting [3]) it was 8.7 nM; in experiment [2] (setting [4]) it was 1.7 nM. In addition, in experiment [1], the “IRAK4 Biochemical Assay Max Inhibition (%)” value was 99.0%.

(Values after US20220177446A1, “ALKYNE COMPOUNDS AS IRAK INHIBITORS, PREPARATION METHODS AND MEDICINAL USES THEREOF” (Eternity Bioscience Inc., priority 2020, published 2022).)
